Source: ChEMBL document CHEMBL1151449, “In vitro activity of DC-159a, a new broad-spectrum fluoroquinolone, compared with that of other agents against drug-susceptible and -resistant pneumococci” (2008)
In brackets after ≈: the same amount, converted by molar mass.

Assays:
Format in all cases: functional
[1] = system: Streptococcus pneumoniae; test: Antibacterial activity against Streptococcus pneumoniae HMC 1058 harboring S79F, K137N mutation in quinolone-resistant determining regions of ParC gene and 460V mutation in QRDR of ParE gene by agar dilution method
[2] = system: Streptococcus pneumoniae; test: Antibacterial activity against Streptococcus pneumoniae HMC 4026 harboring S81Y mutation in quinolone-resistant determining regions of GyrA gene, S79F, K137N mutation in QRDR of ParC gene and I460V mutation in QRDR of ParE gene by agar dilution method
[3] = system: Streptococcus pneumoniae; test: Antibacterial activity against Streptococcus pneumoniae HMC 1076 harboring S81F mutation in quinolone-resistant determining regions of GyrA gene, D83N mutation in QRDR of ParC gene and I460V mutation in QRDR of ParE gene by agar dilution method
[4] = system: Streptococcus pneumoniae; test: Antibacterial activity against Streptococcus pneumoniae HMC 1073 harboring S81F mutation in quinolone-resistant determining regions of GyrA gene, and I460V mutation in QRDR of ParE gene by agar dilution method
[5] = system: Streptococcus pneumoniae; test: Antibacterial activity against Streptococcus pneumoniae HMC 1541 harboring S81Y mutation in quinolone-resistant determining regions of GyrA gene, S79F, K137N mutation in QRDR of ParC gene and I460V mutation in QRDR of ParE gene by agar dilution method
[6] = system: Streptococcus pneumoniae; test: Antibacterial activity against Streptococcus pneumoniae HMC 1070 harboring S81F mutation in quinolone-resistant determining regions of GyrA gene, D83N mutation in QRDR of ParC gene and I460V mutation in QRDR of ParE gene by agar dilution method
[7] = system: Streptococcus pneumoniae; test: Antibacterial activity against Streptococcus pneumoniae HMC 1150 harboring S81C mutation in quinolone-resistant determining regions of GyrA gene, S79F mutation in QRDR of ParC gene and I460V mutation in QRDR of ParE gene by agar dilution method
[8] = system: Streptococcus pneumoniae; test: Antibacterial activity against Streptococcus pneumoniae HMC 1062 harboring S81F mutation in quinolone-resistant determining regions of GyrA gene, S79F mutation in QRDR of ParC gene and I460V mutation in QRDR of ParE gene by agar dilution method
[9] = system: Streptococcus pneumoniae; test: Antibacterial activity against Streptococcus pneumoniae HMC 1151 harboring D83N, K137N mutation in quinolone-resistant determining regions of ParC gene and I460V mutation in QRDR of ParE gene showing efflux to ciprofloxacin, gemifloxacin by agar dilution method
[10] = system: Streptococcus pneumoniae; test: Antibacterial activity against Streptococcus pneumoniae HMC 1072 harboring S81F mutation in quinolone-resistant determining regions of GyrA gene, S79Y mutation in QRDR of ParC gene and I460V mutation in QRDR of ParE gene by agar dilution method
[11] = system: Streptococcus pneumoniae; test: Antibacterial activity against Streptococcus pneumoniae HMC 1055 harboring S81F mutation in quinolone-resistant determining regions of GyrA gene, S79F, K137N mutation in QRDR of ParC gene and I460V mutation in QRDR of ParE gene by agar dilution method
[12] = system: Streptococcus pneumoniae; test: Antibacterial activity against Streptococcus pneumoniae HMC 1068 harboring E85K mutation in quinolone-resistant determining regions of GyrA gene, S79Y, K137N mutation in QRDR of ParC gene and I460V mutation in QRDR of ParE gene showing efflux to ciprofloxacin, levofloxacin by agar dilution method
[13] = system: Streptococcus pneumoniae; test: Antibacterial activity against quinolone-resistant Streptococcus pneumoniae […] by agar dilution method
[14] = system: Streptococcus pneumoniae; test: Antibacterial activity against Streptococcus pneumoniae HMC 1071 harboring S81F mutation in quinolone-resistant determining regions of GyrA gene and S79F, K137N mutation in QRDR of ParC gene by agar dilution method
[15] = system: Streptococcus pneumoniae; test: Antibacterial activity against Streptococcus pneumoniae HMC 5041 harboring S81F and S79F mutation in quinolone-resistant determining regions of GyrA and ParC genes respectively by agar dilution method
[16] = system: Streptococcus pneumoniae; test: Antibacterial activity against Streptococcus pneumoniae HMC 2536 harboring S81Y mutation in quinolone-resistant determining regions of GyrA gene, S79F, K137N mutation in QRDR of ParC gene and I460V mutation in QRDR of ParE gene by agar dilution method
[17] = system: Streptococcus pneumoniae; test: Antibacterial activity against Streptococcus pneumoniae HMC 1147 harboring S81F mutation in quinolone-resistant determining regions of GyrA gene, S79F mutation in QRDR of ParC gene and I460V mutation in QRDR of ParE gene showing efflux to gemifloxacin by agar dilution method
[18] = system: Streptococcus pneumoniae; test: Antibacterial activity against Streptococcus pneumoniae HMC 1146 harboring S81F mutation in quinolone-resistant determining regions of GyrA gene, and D435N mutation in QRDR of ParE gene by agar dilution method
[19] = system: Streptococcus pneumoniae; test: Antibacterial activity against Streptococcus pneumoniae HMC 2538 harboring S81Y mutation in quinolone-resistant determining regions of GyrA gene, S79F, K137N mutation in QRDR of ParC gene and I460V mutation in QRDR of ParE gene showing efflux to ciprofloxacin, levofloxacin, gatifloxacin by agar dilution method
[20] = system: Streptococcus pneumoniae; test: Antibacterial activity against Streptococcus pneumoniae HMC 1156 harboring S81F and S79F mutation in quinolone-resistant determining regions of GyrA and ParC genes respectively showing efflux to ciprofloxacin, gemifloxacin by agar dilution method
[21] = system: Streptococcus pneumoniae; test: Antibacterial activity against Streptococcus pneumoniae HMC 2527 harboring S81Y mutation in quinolone-resistant determining regions of GyrA gene, S79F, K137N mutation in QRDR of ParC gene and I460V mutation in QRDR of ParE gene by agar dilution method
[22] = system: Streptococcus pneumoniae; test: Antibacterial activity against Streptococcus pneumoniae HMC 1078 harboring S81F mutation in quinolone-resistant determining regions of GyrA gene, S79F mutation in QRDR of ParC gene and I460V mutation in QRDR of ParE gene by agar dilution method
[23] = system: Streptococcus pneumoniae; test: Antibacterial activity against Streptococcus pneumoniae HMC 1139 harboring S81F mutation in quinolone-resistant determining regions of GyrA gene, S79F, K137N mutation in QRDR of ParC gene and I460V mutation in QRDR of ParE gene by agar dilution method
[24] = system: Streptococcus pneumoniae; test: Antibacterial activity against Streptococcus pneumoniae HMC 1060 harboring S81F mutation in quinolone-resistant determining regions of GyrA gene, S79F, K137N mutation in QRDR of ParC gene and I460V mutation in QRDR of ParE gene by agar dilution method
[25] = system: Streptococcus pneumoniae; test: Antibacterial activity against Streptococcus pneumoniae HMC 1077 harboring S81Y and S79F mutation in quinolone-resistant determining regions of GyrA and ParC genes respectively by agar dilution method
[26] = system: Streptococcus pneumoniae; test: Antibacterial activity against Streptococcus pneumoniae HMC 1149 harboring S81F and S79Y mutation in quinolone-resistant determining regions of GyrA and ParC genes respectively showing efflux to ciprofloxacin, gemifloxacin by agar dilution method
[27] = system: Streptococcus pneumoniae; test: Antibacterial activity against Streptococcus pneumoniae HMC 1059 harboring S81F mutation in quinolone-resistant determining regions of GyrA gene, S79F, K137N mutation in QRDR of ParC gene and I460N mutation in QRDR of ParE gene by agar dilution method
[28] = system: Streptococcus pneumoniae; test: Antibacterial activity against Streptococcus pneumoniae HMC 1066 harboring S81F mutation in quinolone-resistant determining regions of GyrA gene, S79F mutation in QRDR of ParC gene and I460V mutation in QRDR of ParE gene by agar dilution method
[29] = system: Streptococcus pneumoniae; test: Antibacterial activity against Streptococcus pneumoniae HMC 1074 harboring S81F mutation in quinolone-resistant determining regions of GyrA gene, S79F mutation in QRDR of ParC gene and I460V mutation in QRDR of ParE gene by agar dilution method
[30] = system: Streptococcus pneumoniae; test: Antibacterial activity against penicillin-susceptible Streptococcus pneumoniae ATCC 49619 by agar dilution method
[31] = system: Streptococcus pneumoniae; test: Antibacterial activity against quinolone-susceptible Streptococcus pneumoniae ATCC 49619 by agar dilution method
[32] = system: Streptococcus pneumoniae; test: Antibacterial activity against azithromycin-resistant Streptococcus pneumoniae […] by agar dilution method
[33] = system: Streptococcus pneumoniae; test: Antibacterial activity against penicillin-intermediate Streptococcus pneumoniae […] by agar dilution method
[34] = system: Streptococcus pneumoniae; test: Antibacterial activity against penicillin-, macrolide-susceptible and quinolone-resistant Streptococcus pneumoniae HMC 1074 harboring S81F, E85K mutation in quinolone-resistant determining regions of GyrA gene, S79F mutation in QRDR of ParC gene and I460V mutation in QRDR of ParE gene after 27 passages with gemifloxacin measured after 10 daily antibiotic-free subculturing by multi-step resistance selection technique
[35] = system: Streptococcus pneumoniae; test: Antibacterial activity against penicillin-resistant Streptococcus pneumoniae […] by agar dilution method
[36] = system: Streptococcus pneumoniae; test: Antibacterial activity against azithromycin-susceptible Streptococcus pneumoniae ATCC 49619 by agar dilution method

O=C(O)c1cn(C2CC2)c2cc(N3CCNCC3)c(F)cc2c1=O [CIPROFLOXACIN]
MIC [1]: 16 µg/mL (≈ 48.3 µM)
MIC [2]: > 32 µg/mL
MIC [3]: 16 µg/mL (≈ 48.3 µM)
MIC [4]: 8 µg/mL (≈ 24.1 µM)
MIC [5]: 16 µg/mL (≈ 48.3 µM)
MIC [6]: > 32 µg/mL
MIC [7]: 16 µg/mL (≈ 48.3 µM)
MIC [8]: > 32 µg/mL
MIC [9]: 16 µg/mL (≈ 48.3 µM)
MIC [10]: > 32 µg/mL
MIC [11]: 32 µg/mL (≈ 96.6 µM)
MIC [12]: 32 µg/mL (≈ 96.6 µM)
MIC50 [13]: 16 µg/mL (≈ 48.3 µM)
MIC90 [13]: > 32 µg/mL
MIC [14]: 32 µg/mL (≈ 96.6 µM)
MIC [15]: 16 µg/mL (≈ 48.3 µM)
MIC [16]: 16 µg/mL (≈ 48.3 µM)
MIC [17]: 32 µg/mL (≈ 96.6 µM)
MIC [18]: 32 µg/mL (≈ 96.6 µM)
MIC [19]: 16 µg/mL (≈ 48.3 µM)
MIC [20]: > 32 µg/mL
MIC [21]: 16 µg/mL (≈ 48.3 µM)
MIC [22]: > 32 µg/mL
MIC [23]: 32 µg/mL (≈ 96.6 µM)
MIC [24]: 16 µg/mL (≈ 48.3 µM)
MIC [25]: > 32 µg/mL
MIC [26]: 16 µg/mL (≈ 48.3 µM)
MIC [27]: 32 µg/mL (≈ 96.6 µM)
MIC [28]: 16 µg/mL (≈ 48.3 µM)
MIC [29]: 16 µg/mL (≈ 48.3 µM)

C[C@H]1COc2c(N3CCN(C)CC3)c(F)cc3c(=O)c(C(=O)O)cn1c23.C[C@H]1COc2c(N3CCN(C)CC3)c(F)cc3c(=O)c(C(=O)O)cn1c23.O [LEVOFLOXACIN]
MIC50 [30]: 1 µg/mL
MIC90 [30]: 4 µg/mL
MIC50 [31]: 1 µg/mL
MIC90 [31]: 1 µg/mL
MIC50 [13]: 16 µg/mL
MIC90 [13]: 16 µg/mL
MIC50 [32]: 1 µg/mL
MIC90 [32]: 2 µg/mL
MIC50 [33]: 1 µg/mL
MIC90 [33]: 1 µg/mL
MIC [34]: 64 µg/mL
MIC50 [35]: 1 µg/mL
MIC90 [35]: 8 µg/mL
MIC50 [36]: 1 µg/mL
MIC90 [36]: 8 µg/mL

CC1(C)S[C@@H]2[C@H](NC(=O)Cc3ccccc3)C(=O)N2[C@H]1C(=O)O [PENICILLIN G]
MIC50 [30]: 0.03 µg/mL (≈ 0.0897 µM)
MIC90 [30]: 0.06 µg/mL (≈ 0.179 µM)
MIC50 [31]: 0.25 µg/mL (≈ 0.748 µM)
MIC90 [31]: 4 µg/mL (≈ 12 µM)
MIC50 [13]: 0.5 µg/mL (≈ 1.5 µM)
MIC90 [13]: 4 µg/mL (≈ 12 µM)
MIC50 [32]: 0.5 µg/mL (≈ 1.5 µM)
MIC90 [32]: 4 µg/mL (≈ 12 µM)
MIC50 [33]: 0.25 µg/mL (≈ 0.748 µM)
MIC90 [33]: 1 µg/mL (≈ 2.99 µM)
MIC50 [35]: 2 µg/mL (≈ 5.98 µM)
MIC90 [35]: 4 µg/mL (≈ 12 µM)
MIC50 [36]: 0.25 µg/mL (≈ 0.748 µM)
MIC90 [36]: 2 µg/mL (≈ 5.98 µM)

CC[C@H]1OC(=O)[C@H](C)C(=O)[C@H](C)[C@@H](O[C@@H]2O[C@H](C)C[C@H](N(C)C)[C@H]2O)[C@](C)(OC)C[C@@H](C)C(=O)[C@H](C)[C@H]2N(CCCCn3cnc(-c4cccnc4)c3)C(=O)O[C@]12C [TELITHROMYCIN]
MIC50 [30]: 0.03 µg/mL (≈ 0.0369 µM)
MIC90 [30]: 0.12 µg/mL (≈ 0.148 µM)
MIC50 [31]: 0.03 µg/mL (≈ 0.0369 µM)
MIC90 [31]: 0.12 µg/mL (≈ 0.148 µM)
MIC50 [13]: 0.016 µg/mL (≈ 0.0197 µM)
MIC90 [13]: 0.25 µg/mL (≈ 0.308 µM)
MIC50 [32]: 0.06 µg/mL (≈ 0.0739 µM)
MIC90 [32]: 0.25 µg/mL (≈ 0.308 µM)
MIC50 [33]: 0.03 µg/mL (≈ 0.0369 µM)
MIC90 [33]: 0.12 µg/mL (≈ 0.148 µM)
MIC50 [35]: 0.06 µg/mL (≈ 0.0739 µM)
MIC90 [35]: 0.25 µg/mL (≈ 0.308 µM)
MIC50 [36]: 0.016 µg/mL (≈ 0.0197 µM)
MIC90 [36]: 0.03 µg/mL (≈ 0.0369 µM)
